Results as given in US8710043B2, “TRPM8 antagonists and their use in treatments” (Amgen Inc., priority 2011, dated 2014).
Where a name gives a salt, the structure may show the parent alone.

What follows are compounds tested against T1, human TRPM8 (Homo sapiens, UniProt Q7Z2W7) (assay: Luminescence readout assay for measuring intracellular calcium, icilin activation). Details: CHO cells expressing human TRPM8, aequorin luminescence, 1 μM icilin activation; read-out: hTRPM8 IC50.
T1 construct: expressed in transfected cells; host or cells: Chinese hamster ovary (CHO) cells, T-REx tetracycline-inducible system, co-transfected with aequorin
T1 sequence (Q7Z2W7 whole entry): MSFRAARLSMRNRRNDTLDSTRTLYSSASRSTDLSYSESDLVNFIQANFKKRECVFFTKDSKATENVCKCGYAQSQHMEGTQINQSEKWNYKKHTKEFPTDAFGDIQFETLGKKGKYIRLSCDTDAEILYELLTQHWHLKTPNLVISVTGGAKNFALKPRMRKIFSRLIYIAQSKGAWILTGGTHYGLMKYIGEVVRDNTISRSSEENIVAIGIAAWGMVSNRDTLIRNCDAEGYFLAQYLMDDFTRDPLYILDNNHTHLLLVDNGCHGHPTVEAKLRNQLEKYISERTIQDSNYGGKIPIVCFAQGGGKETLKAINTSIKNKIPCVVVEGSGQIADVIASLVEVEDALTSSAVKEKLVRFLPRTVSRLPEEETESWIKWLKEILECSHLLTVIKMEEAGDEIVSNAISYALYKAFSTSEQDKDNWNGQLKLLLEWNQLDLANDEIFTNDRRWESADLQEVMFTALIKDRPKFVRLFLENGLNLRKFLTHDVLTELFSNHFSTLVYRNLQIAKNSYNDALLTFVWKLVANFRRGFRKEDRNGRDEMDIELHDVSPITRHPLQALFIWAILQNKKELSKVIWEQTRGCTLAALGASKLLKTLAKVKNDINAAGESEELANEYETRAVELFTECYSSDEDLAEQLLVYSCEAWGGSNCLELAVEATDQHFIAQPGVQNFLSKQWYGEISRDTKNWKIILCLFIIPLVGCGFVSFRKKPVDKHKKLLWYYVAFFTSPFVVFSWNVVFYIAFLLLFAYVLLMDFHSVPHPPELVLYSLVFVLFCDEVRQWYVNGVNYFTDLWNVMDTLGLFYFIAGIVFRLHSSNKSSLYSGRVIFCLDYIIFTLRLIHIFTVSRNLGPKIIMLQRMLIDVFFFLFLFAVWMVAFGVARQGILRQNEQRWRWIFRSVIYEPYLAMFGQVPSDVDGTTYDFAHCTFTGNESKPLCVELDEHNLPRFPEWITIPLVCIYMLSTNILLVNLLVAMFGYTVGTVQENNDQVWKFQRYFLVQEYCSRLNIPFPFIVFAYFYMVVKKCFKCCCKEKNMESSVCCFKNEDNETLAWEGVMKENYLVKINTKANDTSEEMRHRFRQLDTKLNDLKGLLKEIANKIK
Format: cell-based
Method in brief: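 The read-out was luminescence reporting intracellular calcium, recorded by a CCD-based luminometer. Compounds were preincubated for 2.5 min before agonist challenge with 1 μM icilin. Human TRPM8 was expressed in a stable T-REx CHO line, induced with 0.5 μg/mL tetracycline the day before.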

Row | SMILES | IC50
1 | COC(=O)c1ccc(C(=O)N[C@@H](c2ccc(OC(F)(F)F)c(F)c2)c2ncccc2F)nc1 [Example 398, (S)-methyl 6-(((3-fluoro-4-(trifluoromethoxy)phenyl)(3-fluoropyridin-2-yl)methyl)carbamoyl)nicotinate] | 189 nM
2 | O=C(N[C@@H](c1ccc(OC(F)(F)F)c(F)c1)c1ncccc1F)c1c[nH]c(=O)c(C(F)(F)F)c1 [Example 402, (S)-N-((3-fluoro-4-(trifluoromethoxy)phenyl)(3-fluoropyridin-2-yl)methyl)-6-oxo-5-(trifluoromethyl)-1,6-dihydropyridine-3-carboxamide] | 120 nM
3 | COc1ccc(C(=O)N[C@@H](c2ccc(OC(F)(F)F)c(F)c2)c2ncccc2F)[nH]c1=O [Example 404, (S)-N-((3-fluoro-4-(trifluoromethoxy)phenyl)(3-fluoropyridin-2-yl)methyl)-5-methoxy-6-oxo-1,6-dihydropyridine-2-carboxamide] | 3550 nM
4 | COC(=O)c1ccc(C(=O)N[C@@H](c2ccc(OC(F)(F)F)c(F)c2)c2ccccn2)nc1 [Example 406, (S)-methyl 6-(((3-fluoro-4-(trifluoromethoxy)phenyl)(pyridin-2-yl)methyl)carbamoyl)nicotinate] | 241 nM
5 | O=C(N[C@@H](c1ccc(OC(F)(F)F)c(F)c1)c1ncccc1F)c1ccc(=O)n(CC2(O)CC2)c1 [Example 407, (S)-N-((3-fluoro-4-(trifluoromethoxy)phenyl)(3-fluoropyridin-2-yl)methyl)-1-((1-hydroxycyclopropyl)methyl)-6-oxo-1,6-dihydropyridine-3-carboxamide] | 59.6 nM
6 | O=C(N[C@@H](c1ccc(OC(F)(F)F)c(F)c1)c1ncccc1F)c1ccc(=O)n(C[C@H](O)C(F)(F)F)c1 [Example 408, N-((S)-(3-fluoro-4-(trifluoromethoxy)phenyl)(3-fluoropyridin-2-yl)methyl)-6-oxo-1-((S)-3,3,3-trifluoro-2-hydroxypropyl)-1,6-dihydropyridine-3-carboxamide] | 78.1 nM
7 | O=C(N[C@@H](c1ccc(OC(F)(F)F)c(F)c1)c1ncccc1F)c1ccc(=O)n(C[C@@H](O)C(F)(F)F)c1 [Example 409, N-((S)-(3-fluoro-4-(trifluoromethoxy)phenyl)(3-fluoropyridin-2-yl)methyl)-6-oxo-1-((R)-3,3,3-trifluoro-2-hydroxypropyl)-1,6-dihydropyridine-3-carboxamide] | 89.2 nM
8 | Cc1ccc(F)c([C@@H](NC(=O)c2ccc(=O)[nH]c2)c2ccc(C(F)(F)F)cc2)n1 [Example 410, (S)-N-((3-fluoro-6-methylpyridin-2-yl)(4-(trifluoromethyl)phenyl)methyl)-6-oxo-1,6-dihydropyridine-3-carboxamide] | 71.8 nM
9 | O=C(NC(c1ccc(F)cc1)c1ccc(OC(F)(F)F)c(F)c1)c1ccc(=O)[nH]c1 (centres unmarked) [Example 411, N-((3-fluoro-4-(trifluoromethoxy)phenyl)(4-fluorophenyl)methyl)-6-oxo-1,6-dihydropyridine-3-carboxamide] | 140 nM
10 | O=C(NC(c1ccc(OC(F)(F)F)c(F)c1)c1ccc(F)cc1F)c1ccc(=O)[nH]c1 (centres unmarked) [Example 413, N-((2,4-difluorophenyl)(3-fluoro-4-(trifluoromethoxy)phenyl)methyl)-6-oxo-l,6-dihydropyridine-3-carboxamide] | 197 nM
11 | O=C(NC(c1ccc(OC(F)(F)F)c(F)c1)c1cc(F)ccc1F)c1ccc(=O)[nH]c1 (centres unmarked) [Example 414, N-((2,5-difluorophenyl)(3-fluoro-4-(trifluoromethoxy)phenyl)methyl)-6-oxo-1,6-dihydropyridine-3-carboxamide] | 150 nM
12 | O=C(O)c1cccc(C(=O)N[C@@H](c2ccc(OC(F)(F)F)c(F)c2)c2ncccc2F)n1 [Example 415, (S)-6-(((3-fluoro-4-(trifluoromethoxy)phenyl)(3-fluoropyridin-2-yl)methyl)carbamoyl)picolinic acid trifluoroacetate] | 648 nM
13 | O=C(NC(c1cccc(F)c1)c1ccc(OC(F)(F)F)c(F)c1)c1ccc(=O)[nH]c1 (centres unmarked) [Example 417, N-((3-fluoro-4-(trifluoromethoxy)phenyl)(3-fluorophenyl)methyl)-6-oxo-1,6-dihydropyridine-3-carboxamide] | 83 nM
14 | O=C(NC(c1ccc(OC(F)(F)F)c(F)c1)c1c(F)cccc1F)c1ccc(=O)[nH]c1 (centres unmarked) [Example 418, N-((2,6-difluorophenyl)(3-fluoro-4-(trifluoromethoxy)phenyl)methyl)-6-oxo-1,6-dihydropyridine-3-carboxamide] | 65 nM
15 | COc1cccc(C(NC(=O)c2ccc(=O)[nH]c2)c2ccc(OC(F)(F)F)c(F)c2)n1 (centres unmarked) [Example 420, N-((3-fluoro-4-(trifluoromethoxy)phenyl)(6-methoxypyridin-2-yl)methyl)-6-oxo-1,6-dihydropyridine-3-carboxamide] | 118 nM
16 | COc1ccc(C(NC(=O)c2ccc(=O)[nH]c2)c2ccc(OC(F)(F)F)c(F)c2)nc1 (centres unmarked) [Example 421] | 611 nM
17 | COc1ccnc(C(NC(=O)c2ccc(=O)[nH]c2)c2ccc(OC(F)(F)F)c(F)c2)c1 (centres unmarked) [Example 422, N-((3-fluoro-4-(trifluoromethoxy)phenyl)(4-methoxypyridin-2-yl)methyl)-6-oxo-1,6-dihydropyridine-3-carboxamide] | 841 nM
18 | Cc1ccnc(C(NC(=O)c2ccc(=O)[nH]c2)c2ccc(OC(F)(F)F)c(F)c2)c1 (centres unmarked) [Example 423, N-((3-fluoro-4-(trifluoromethoxy)phenyl)(4-methylpyridin-2-yl)methyl)-6-oxo-1,6-dihydropyridine-3-carboxamide] | 137 nM
19 | Cc1ccc(C(NC(=O)c2ccc(=O)[nH]c2)c2ccc(OC(F)(F)F)c(F)c2)nc1 (centres unmarked) [Example 424, N-((3-fluoro-4-(trifluoromethoxy)phenyl)(5-methylpyridin-2-yl)methyl)-6-oxo-1,6-dihydropyridine-3-carboxamide] | 92 nM
20 | O=C(O)Cn1cc(C(=O)N[C@@H](c2ccc(OC(F)(F)F)c(F)c2)c2ncccc2F)ccc1=O [Example 428, (S)-2-(5-(((3-Fluoro-4-(trifluoromethoxy)phenyl)(3-fluoropyridin-2-yl)methyl)carbamoyl)-2-oxopyridin-1(2H)-yl)acetic Acid] | 1290 nM
21 | O=C(O)Cn1cc(C(=O)N[C@@H](c2ccc(C(F)(F)F)cc2)c2ncccc2F)ccc1=O [Example 429, (S)-2-(5-(((3-Fluoropyridin-2-yl)(4-(trifluoromethyl)phenyl)methyl)carbamoyl)-2-oxopyridin-1(2H)-yl)acetic Acid] | 2660 nM

Stronger by IC50, values ahead:

Row | IC50 | SMILES
22 | 10.3 nM | Cc1nc2cc(C(=O)N[C@@H](c3ccc(C(F)(F)F)cc3)c3ncccc3F)ccc2[nH]1 [Example 397, (S)-N-((3-fluoropyridin-2-yl)(4-(trifluoromethyl)phenyl)methyl)-2-methyl-1H-benzo[d]imidazole-5-carboxamide]
23 | 16.5 nM | O=C(N[C@@H](c1ccc(OC(F)(F)F)c(F)c1)c1ncccc1F)c1ccc(=O)n(C(F)F)c1 [Example 399, (S)-1-(difluoromethyl)-N-((3-fluoro-4-(trifluoromethoxy)phenyl)(3-fluoropyridin-2-yl)methyl)-6-oxo-1,6-dihydropyridine-3-carboxamide]
24 | 6.9 nM | O=C(N[C@@H](c1ccc(OC(F)(F)F)c(F)c1)c1ncccc1F)c1c[nH]c(=O)c(F)c1 [Example 400, (S)-5-fluoro-N-((3-fluoro-4-(trifluoromethoxy)phenyl)(3-fluoropyridin-2-yl)methyl)-6-oxo-1,6-dihydropyridine-3-carboxamide]
25 | 12.8 nM | O=C(N[C@@H](c1ccc(OC(F)(F)F)c(F)c1)c1ncccc1F)c1c[nH]c(=O)c(Cl)c1 [Example 401, (S)-5-chloro-N-((3-fluoro-4-(trifluoromethoxy)phenyl)(3-fluoropyridin-2-yl)methyl)-6-oxo-1,6-dihydropyridine-3-carboxamide]
26 | 17.8 nM | Cc1cc(C(=O)N[C@@H](c2ccc(OC(F)(F)F)c(F)c2)c2ncccc2F)c[nH]c1=O [Example 403, (S)-N-((3-fluoro-4-(trifluoromethoxy)phenyl)(3-fluoropyridin-2-yl)methyl)-5-methyl-6-oxo-1,6-dihydropyridine-3-carboxamide]
27 | 48 nM | O=C(NC(c1ccc(OC(F)(F)F)c(F)c1)c1cccc(F)c1F)c1ccc(=O)[nH]c1 (centres unmarked) [Example 412, N-((2,3-difluorophenyl)(3-fluoro-4-(trifluoromethoxy)phenyl)methyl)-6-oxo-1,6-dihydropyridine-3-carboxamide]
28 | 54 nM | O=C(N[C@@H](c1ccc(OC(F)(F)F)c(F)c1)c1ncccc1F)c1ccc[nH]c1=O [Example 416, (S)-N-((3-fluoro-4-(trifluoromethoxy)phenyl)(3-fluoropyridin-2-yl)methyl)-2-oxo-1,2-dihydropyridine-3-carboxamide]
29 | 10.5 nM | O=C(N[C@@H](c1ccc(OC(F)(F)F)c(F)c1)c1ncccc1F)c1ccc2oc(=O)[nH]c2n1 [Example 425, (S)—N-((3-Fluoro-4-(trifluoromethoxy)phenyl)(3-fluoropyridin-2-yl)methyl)-2-oxo-2,3-dihydrooxazolo[4,5-b]pyridine-5-carboxamide]
30 | 14 nM | O=C(N[C@@H](c1ccc(OC(F)(F)F)c(F)c1)c1ncccc1F)c1cnc2[nH]c(=O)oc2c1 [Example 427, (S)—N-((3-Fluoro-4-(trifluoromethoxy)phenyl)(3-fluoropyridin-2-yl)methyl)-2-oxo-2,3-dihydrooxazolo[4,5-b]pyridine-6-carboxamide]
31 | 12.4 nM | CCc1cccnc1[C@@H](NC(=O)c1ccc(=O)[nH]c1)c1ccc(C(F)(F)F)cc1 [Example 430, (S)—N-((3-Ethylpyridin-2-yl)(4-(trifluoromethyl)phenyl)methyl)-6-oxo-1,6-dihydropyridine-3-carboxamide]
32 | 56.4 nM | CC(=O)Oc1ccc(C(=O)N[C@@H](c2ccc(C(F)(F)F)cc2)c2ncccc2F)cc1N [Example 431, (S)-2-Amino-4-(((3-fluoropyridin-2-yl)(4-(trifluoromethyl)phenyl)methyl)carbamoyl)phenyl Acetate]
